In patent publication US20180237441A1, “Chemical Compounds” (GlaxoSmithKline Intellectual Property (No.2) Limited, priority 2015, published 2018):

The molecules below were run against T1, PERK (Homo sapiens, UniProt Q9NZJ5) (assay: PERK enzyme assay (HTRF)). Conditions: PERK Enzyme (500 μM ATP) IC50; at least one experimental run; read-out: PERK Activity.
T1 sequence (Q9NZJ5 30-1116): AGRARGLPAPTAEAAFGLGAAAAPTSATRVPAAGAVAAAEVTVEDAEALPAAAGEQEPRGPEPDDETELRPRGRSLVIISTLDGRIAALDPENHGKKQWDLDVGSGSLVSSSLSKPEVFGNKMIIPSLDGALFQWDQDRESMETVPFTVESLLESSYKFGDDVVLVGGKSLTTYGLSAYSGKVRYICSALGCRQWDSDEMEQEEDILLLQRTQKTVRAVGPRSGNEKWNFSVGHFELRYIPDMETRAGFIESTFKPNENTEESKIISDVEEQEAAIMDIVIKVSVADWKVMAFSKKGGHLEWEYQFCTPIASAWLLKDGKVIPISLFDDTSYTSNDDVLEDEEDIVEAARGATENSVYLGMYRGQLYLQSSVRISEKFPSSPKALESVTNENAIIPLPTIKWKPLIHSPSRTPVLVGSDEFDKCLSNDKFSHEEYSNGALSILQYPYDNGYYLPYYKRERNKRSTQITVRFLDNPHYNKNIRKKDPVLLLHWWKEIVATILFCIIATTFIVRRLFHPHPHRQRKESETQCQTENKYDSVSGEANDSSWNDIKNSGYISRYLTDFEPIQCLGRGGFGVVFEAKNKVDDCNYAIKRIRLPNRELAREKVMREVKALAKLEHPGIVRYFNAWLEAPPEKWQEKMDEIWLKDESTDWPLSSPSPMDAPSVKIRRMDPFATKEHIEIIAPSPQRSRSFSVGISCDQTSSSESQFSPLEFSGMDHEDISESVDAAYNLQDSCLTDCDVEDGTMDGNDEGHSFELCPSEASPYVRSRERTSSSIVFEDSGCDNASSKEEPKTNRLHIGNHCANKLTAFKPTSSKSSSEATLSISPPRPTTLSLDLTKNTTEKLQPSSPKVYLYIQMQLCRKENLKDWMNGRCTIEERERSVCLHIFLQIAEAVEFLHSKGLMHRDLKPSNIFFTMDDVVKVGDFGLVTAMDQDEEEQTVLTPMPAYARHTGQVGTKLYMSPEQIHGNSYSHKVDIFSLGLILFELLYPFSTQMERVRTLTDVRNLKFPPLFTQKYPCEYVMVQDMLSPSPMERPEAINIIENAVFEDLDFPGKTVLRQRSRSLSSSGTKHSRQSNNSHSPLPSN
Type: biochemical
Method: Compounds of the invention were assayed for PERK enzyme inhibitory activity with modifications to previously reported conditions (Axten et al. J. Med. Chem., 2012, 55, 7193-7207). Briefly, various concentrations of compounds (maximum 1% DMSO) were dispensed into 384-well plates containing GST-PERK enzyme. After 30-60 minutes of compound pre-incubation, ATP and biotin-eIF2α were added and after 60 minutes the reaction was quenched. After 2 hrs, a fluorescence plate reader was used to measure inhibition and IC50s were calculated.
Enzyme Assay Protocol for PKR-Like Endoplasmic Reticulum Kinase (PERK)—HTRF —% Inhibition
Assay Buffer contains HEPES (pH7.5) 10 mM, CHAPS 2 mM, MgCl2 5 mM and DTT 1 mM in water
Detection Buffer contains HEPES (pH7.5) 10 mM and CHAPS 2 mM in water Assay Plate Preparation:
1. Enzyme Preparation: • 4× Enzyme solution was prepared immediately prior to adding to compound plates. • 3 nM of GST-PERK in Assay buffer. Final [PERK] in 10 μl assay volume=0.75 nM
2. Substrate Preparation: • 4× Substrate solution was prepared immediately prior to adding to compound plates. • 4× Substrate solution in assay buffer 2000 μM ATP and 160 nM Biotin-eIF2α • Final [ATP] in 10 μl assay volume=500 μM • Final [biotin-eIF2a] in 10 μl assay volume=40 nM.
3. Quench/Detection Solution: • 16 nM eIF2 Phospho-Antibody • 16 nM Eu anti-Rabbit IgG • 160 nM Streptavidin-APC • 60 mM EDTA • Final concentration in 10 μL assay volume: 4 nM eIF2 Phospho-Antibody, 4 nM Eu anti-Rabbit IgG 40 nM Streptavidin-APC
The activity of compounds in the PERK enzyme assay was determined at PERK Enzyme (500 μM ATP) IC50 (nM).
Molecule `CN1C(=O)N(c2ccc(-c3cn(C)c4ncnc(N)c34)c(F)c2)CC1c1cc(F)ccc1F` (single isomer, unassigned) [Example 150, 1-(4-(4-amino-7-methyl-7H-pyrrolo[2,3-d]pyrimidin-5-yl)-3-fluorophenyl)-4-(2,5-difluorophenyl)-3-methylimidazolidin-2-one] has an IC50 of less than 100 nM.
Work on `CN1C(=O)N(c2ccc(-c3cn(C4CC4)c4ncnc(N)c34)c(Cl)c2)CC1c1cc(F)cc(F)c1` (centres unmarked) [Example 122, 1-(4-(4-amino-7-cyclopropyl-7H-pyrrolo[2,3-d]pyrimidin-5-yl)-3-chlorophenyl)-4-(3,5-difluorophenyl)-3-methylimidazolidin-2-one] yielded an IC50 of less than 100 nM.
Molecule `CCN1C(=O)N(c2ccc(-c3cn(C)c4nc(C)nc(N)c34)c(F)c2)CC1c1cc(F)ccc1F` (centres unmarked) [Example 19, 1-(4-(4-amino-2,7-dimethyl-7H-pyrrolo[2,3-d]pyrimidin-5-yl)-3-fluorophenyl)-4-(2,5-difluorophenyl)-3-ethylimidazolidin-2-one] has an IC50 greater than 1000 nM.
Molecule `CN1C(=O)N(c2ccc(-c3cn(C)c4ncnc(N)c34)c(F)c2)CC1c1cc(F)cc(F)c1F` (centres unmarked) [Example 56, 1-(4-(4-amino-7-methyl-7H-pyrrolo[2,3-d]pyrimidin-5-yl)-3-fluorophenyl)-3-methyl-4-(2,3,5-trifluorophenyl)imidazolidin-2-one] has an IC50 of 100 to 1000 nM.
For `CCN1C(=O)N(c2ccc(-c3cn(C)c4ncnc(N)c34)c(F)c2)CC1c1cc(F)cc(F)c1F` (centres unmarked) [Example 55, 1-(4-(4-amino-7-methyl-7H-pyrrolo[2,3-d]pyrimidin-5-yl)-3-fluorophenyl)-3-ethyl-4-(2,3,5-trifluorophenyl)imidazolidin-2-one], the IC50 was 100 to 1000 nM.
For `CN1C(=O)N(c2ccc(-c3cn(C4CC4)c4ncnc(N)c34)c(F)c2)CC1c1cc(F)cc(F)c1` (racemic) [Example 175, 1-(4-(4-amino-7-cyclopropyl-7H-pvrrolo[2,3-d]pyrimidin-5-yl)-3-fluorophenyl)-4-(3,5-difluorophenyl)-3-methylimidazolidin-2-one], the IC50 was less than 100 nM.
In the case of `CN1C(=O)N(c2ccc(-c3cn(C4CC4)c4ncnc(N)c34)c(F)c2)CC1c1ccc(Cl)cc1` (centres unmarked) [Example 167, 1-(4-(4-amino-7-cyclopropyl-7H-pyrrolo[2,3-d]pyrimidin-5-yl)-3-fluorophenyl)-4-(4-chlorophenyl)-3-methylimidazolidin-2-one], the IC50 is reported as less than 100 nM.
`Cc1nc(N)c2c(-c3ccc(N4CC(c5c(F)ccc(F)c5F)N(C)C4=O)cc3F)cn(C)c2n1` (centres unmarked) [Example 72, 1-(4-(4-amino-2,7-dimethyl-7H-pyrrolo[2,3-d]pyrimidin-5-yl)-3-fluorophenyl)-3-methyl-4-(2,3,6-trifluorophenyl)imidazolidin-2-one] gave an IC50 of 100 to 1000 nM.
In the case of `Cc1nc(N)c2c(-c3ccc(N4CC(c5ccc(F)cc5F)N(C)C4=O)cc3F)nn(C)c2n1` (single isomer, unassigned) [Example 12, 1-(4-(4-amino-1,6-dimethyl-1H-pyrazolo[3,4-d]pyrimidin-3-yl)-3-fluorophenyl)-4-(2,4-difluorophenyl)-3-methylimidazolidin-2-one], the IC50 is reported as less than 100 nM.
In the case of `CCN1C(=O)N(c2ccc(-c3cn(C(C)C)c4ncnc(N)c34)c(F)c2)CC1c1cc(F)ccc1F` (centres unmarked) [Example 106, 1-(4-(4-amino-7-isopropyl-7H-pyrrolo[2,3-d]pyrimidin-5-yl)-3-fluorophenyl)-4-(2,5-difluorophenyl)-3-ethylimidazolidin-2-one], the IC50 is reported as 100 to 1000 nM.
`CN1C(=O)N(c2ccc(-c3nn(C)c4ncnc(N)c34)c(F)c2)CC1c1ccc(F)cc1F` (centres unmarked) [Example 99, 1-(4-(4-amino-1-methyl-1H-pyrazolo[3,4-d]pyrimidin-3-yl)-3-fluorophenyl)-4-(2,4-difluorophenyl)-3-methylimidazolidin-2-one] was tested, and the IC50 was less than 100 nM.
